How the values were obtained:
cardiac β-receptor = assay: inhibition of isoprenalin tachycardia in wake rabbits (cardiac β-receptor blocking activity); format: in vivo, rabbit; settings: for Heartbeat Frequency: isoprenalin 1 μg/kg i.v. 30 minutes after infusion, x ± sx; for DE250: i.v., interpolated dosage which limits the frequence increase to 250 beats/min
Protocol: The following tests were carried out to determine the cardiac β-receptor blocking activity of certain test compounds by determining the inhibition of the heart beat frequency increase induced by intravenous administration of isoprenalin.
The β-receptor blocking activity of the test compounds was tested on wake rabbits weighing between 2 to 3.5 kg. and kept in wooden cages. EKG-electrodes were inserted into the hind quarters of the rabbits s.c. (II. lead) and the heart frequency was measured based on 20 heart beats. The test compounds were then infused through a small tube to the ear vein of the rabbits over a period of 15 minutes. 30 minutes after the infusion isoprenalin (3,4-dihydro-α-[(isopropylamino)-methyl]-benzylalcohol) was injected intravenously at 1 μg/kg.

[1] = acute toxicity in mice, intravenous; settings: in vivo, mouse, i.v., dosage at which 50% of the mice die
Protocol: 1. The acute toxicity in mice when administered intravenouly was measured and the LD50 (=dosage at which 50% of the mice die) determined.

## CC(C)NCC(O)COc1ccc2nsnc2c1 (centres unmarked) [Compound A, 5-(3-Isopropylamino-2-hydroxypropoxy)-2,1,3-benzo-thiadiazole, reference compound]
Cardiac β-receptor; 1.0 mg/kg i.v.
  Heartbeat Frequency: 290 ± 8 beats/min
Cardiac β-receptor; 5.0 mg/kg i.v.
  Heartbeat Frequency: 246 ± 7 beats/min
Cardiac β-receptor
  DE250: 5 mg/kg
[1]
  LD50: 100 mg/kg

## CC(C)NCC(O)COc1cccc2nsnc12 (centres unmarked) [Compound I, 4-(3-Isopropylamino-2-hydroxy-propyloxy)-2,1,3-benzthiadiazole]
Cardiac β-receptor; 0.01 mg/kg i.v.
  Heartbeat Frequency: 324 ± 9 beats/min
Cardiac β-receptor; 0.1 mg/kg i.v.
  Heartbeat Frequency: 297 ± 10 beats/min
Cardiac β-receptor; 0.3 mg/kg i.v.
  Heartbeat Frequency: 266 ± 14 beats/min
Cardiac β-receptor; 1.0 mg/kg i.v.
  Heartbeat Frequency: 220 ± 14 beats/min
Cardiac β-receptor; 5.0 mg/kg i.v.
  Heartbeat Frequency: 210 ± 5 beats/min
Cardiac β-receptor
  DE250: 0.7 mg/kg
[1]
  LD50: 50 mg/kg

## CC(C)(C)NCC(O)COc1cccc2nsnc12 (centres unmarked) [Compound II]
Cardiac β-receptor; 0.1 mg/kg i.v.
  Heartbeat Frequency: 308 ± 10 beats/min
Cardiac β-receptor; 0.5 mg/kg i.v.
  Heartbeat Frequency: 245 ± 6 beats/min
Cardiac β-receptor; 1.0 mg/kg i.v.
  Heartbeat Frequency: 215 ± 10 beats/min
Cardiac β-receptor; 5.0 mg/kg i.v.
  Heartbeat Frequency: 220 ± 7 beats/min
Cardiac β-receptor
  DE250: 0.5 mg/kg
[1]
  LD50: 45 mg/kg
